The results in this text go back to PubChem BioAssay AID192 (DTP/NCI, 2004).

The test system of the assay is BDF1 mice, B16 melanoma ip, median survival T/C. In words: NCI In Vivo Anticancer Drug Screen. Data for tumor model B16 Melanoma (intraperitoneal) in B6D2F1 (BDF1) mice. The note with it: endpoint: median survival time, higher = longer survival. The method, boiled down:
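The ratio T/C compares compound-treated mice with vehicle-treated controls, using survival or tumor size as the endpoint in a transplantable tumor model.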

[1] abbreviates: dose: 100.0 mg/kg/injection, schedule: Q01DX009 (ip), vehicle: saline.
Where [2] appears, read: dose: 200.0 mg/kg/injection, schedule: Q01DX009 (ip), vehicle: saline.
Setting [3] is: dose: 50.0 mg/kg/injection, schedule: Q01DX009 (ip), vehicle: Klucel (hydroxypropylcellulose) (HPC).
Where [4] appears, read: dose: 100.0 mg/kg/injection, schedule: Q01DX009 (ip), vehicle: Klucel (hydroxypropylcellulose) (HPC).
The mark [5] stands for this setting: dose: 200.0 mg/kg/injection, schedule: Q01DX009 (ip), vehicle: Klucel (hydroxypropylcellulose) (HPC).
Setting [6] is: dose: 50.0 mg/kg/injection, schedule: Q01DX009 (ip), vehicle: saline.
Where [7] appears, read: dose: 400.0 mg/kg/injection, schedule: Q01DX009 (ip), vehicle: Klucel (hydroxypropylcellulose) (HPC).
The mark [8] stands for this setting: dose: 1.56 mg/kg/injection, schedule: Q01DX009 (ip), vehicle: saline.
Setting [9] is: dose: 3.12 mg/kg/injection, schedule: Q01DX009 (ip), vehicle: saline.
Where [10] appears, read: dose: 25.0 mg/kg/injection, schedule: Q01DX009 (ip), vehicle: saline.
The mark [11] stands for this setting: dose: 10.0 mg/kg/injection, schedule: Q01DX009 (ip), vehicle: saline.
[12] abbreviates: dose: 25.0 mg/kg/injection, schedule: Q01DX009 (ip), vehicle: saline with Tween-80.
The mark [13] stands for this setting: dose: 50.0 mg/kg/injection, schedule: Q01DX009 (ip), vehicle: saline with Tween-80.

Where “and” joins values, the source holds several entries; their conditions need not be identical. Equal entries are not always repeated. Inconclusive results and toxic doses are left out. Numbered stars: 1 amine (or outer) side, 2 acyl side, 3 side chain; on linkers, the order of the positions; unused ones are H or OH. Bridge positions count the residues as written; N and C are the ends. Square brackets hold non-standard residues; d marks the D form. Peptide text beside a SMILES is read from it. I, II: the chains in the order shown. Actinocin(9to1) = Cc1c2oc3c(C)ccc(C(=O)[*:1])c3nc-2c(C(=O)[*:2])c(N)c1=O; NMeV = CN[CH](C(=O)O)C(C)C; Sar = CNCC(=O)O

Turning to `Nc1nc(N)n2c(N)nnc2n1`, the T/C is 87 % of control under setting [1] and 88 % of control under setting [2].

With `O=C(O)C1CCCCC1C(=O)Nc1ccc(Cl)cc1` (stereo not drawn), the T/C is, setting by setting: under setting [3], 114 % of control; under setting [4], 105 % of control; under setting [5], 107 % of control.

For `NC(N)=Nc1ccc(C(=O)Nc2ccc([N+](=O)[O-])cc2)cc1`, the T/C under setting [3] is 98 % of control, the T/C under setting [4] was 98 % of control and the T/C under setting [5] is 94 % of control.

On to `C[N+](C)(C)CC(=O)[O-]`, for which the T/C is 108 % of control under setting [6] and 101 % of control under setting [1].

Consider `CCCCCCn1c(O)c(C=N)c(=O)[nH]c1=O`, for which the T/C was 95 % of control under setting [4], 96 % of control under setting [5] and 112 % of control under setting [7].

As to `CCN(C(=O)c1ccc(C(=O)N(CC)c2ccccc2)cc1)c1ccccc1`, the T/C is 119 % of control under setting [3], 114 % of control under setting [4] and 111 % of control under setting [5].

As for `COc1ccccc1Oc1ccc(N=Cc2ccc(C)cc2)cc1`, the T/C is 102 % of control under setting [3]; 86 % of control and 102 % of control under setting [4]; 100 % of control and 111 % of control under setting [5]; 86 % of control under setting [7].

`CCC1(O)CC2c3ccccc3CCN2CC1CC(C)C` (stereo not drawn): the T/C was 104 % of control (dose: 0.19 mg/kg/injection, schedule: Q01DX009 (ip), vehicle: saline); 111 % of control (dose: 0.39 mg/kg/injection, schedule: Q01DX009 (ip), vehicle: saline); 109 % of control (dose: 0.78 mg/kg/injection, schedule: Q01DX009 (ip), vehicle: saline); 112 % of control under setting [8]; 112 % of control under setting [9].

Take `COc1ccccc1NC(=O)Nc1cccc(C)c1C`: the T/C reads like this: under setting [4], 87 % of control; under setting [5], 86 % of control.

Take `CCCCCCCCSSCCCCCCCC`: the T/C is 108 % of control (dose: 100.0 mg/kg/injection, schedule: Q01DX009 (ip), vehicle: saline with Tween-80); 101 % of control (dose: 200.0 mg/kg/injection, schedule: Q01DX009 (ip), vehicle: saline with Tween-80); 98 % of control (dose: 400.0 mg/kg/injection, schedule: Q01DX009 (ip), vehicle: saline with Tween-80).

In the case of `CC[CH2][Pb]([CH2]CC)([CH2]CC)[O]C(=O)c1ccccc1`, the T/C is 103 % of control (dose: 1.56 mg/kg/injection, schedule: Q01DX009 (ip), vehicle: Klucel (hydroxypropylcellulose) (HPC)) and 96 % of control (dose: 3.13 mg/kg/injection, schedule: Q01DX009 (ip), vehicle: Klucel (hydroxypropylcellulose) (HPC)).

Turning to `CC1CNC(=O)O1` (stereo not drawn), the T/C under setting [10] is 104 % of control; the T/C under setting [6] is 100 % of control; the T/C under setting [1] was 100 % of control; the T/C under setting [2] is 92 % of control; the T/C (dose: 400.0 mg/kg/injection, schedule: Q01DX009 (ip), vehicle: saline) was 97 % of control.

For the compound `CNCCN(C)CCN(C)Cc1ccc(OC)cc1`, the T/C under setting [6] is 103 % of control, the T/C under setting [1] is 106 % of control and the T/C under setting [2] is 106 % of control.

As for `CCOC(=O)C(C)Oc1ccccc1[N+](=O)[O-]` (stereo not drawn), the T/C is, setting by setting: under setting [4], 103 % of control; under setting [5], 96 % of control; under setting [7], 103 % of control.

`O=C(O)c1cc(S(=O)O)ccc1O`: the T/C was 103 % of control under setting [11]; 106 % of control (dose: 20.0 mg/kg/injection, schedule: Q01DX009 (ip), vehicle: saline); 98 % of control (dose: 40.0 mg/kg/injection, schedule: Q01DX009 (ip), vehicle: saline).

With `S=P(Nc1ccccc1)(Nc1ccccc1)c1ccccc1`, the T/C under setting [4] was 104 % of control, the T/C under setting [5] is 96 % of control and the T/C under setting [7] is 87 % of control.

For the compound `CC(C)=CC(=O)OCC[N+](C)(C)C`, the T/C reads like this: under setting [8], 114 % of control; under setting [9], 112 % of control; (dose: 6.25 mg/kg/injection, schedule: Q01DX009 (ip), vehicle: saline) 104 % of control; (dose: 12.5 mg/kg/injection, schedule: Q01DX009 (ip), vehicle: saline) 102 % of control; under setting [10], 101 % of control.

With `Cc1c2oc3c(C)ccc(C(=O)NC4C(=O)NC(C(C)C)C(=O)N5CCCC5C(=O)N(C)CC(=O)N(C)C(C(C)C)C(=O)OC4C)c3nc-2c(C(=O)NC2C(=O)NC(C(C)C)C(=O)N3CCCC3C(=O)N(C)CC(=O)N(C)C(C(C)C)C(=O)OC2C)c(N)c1=O` (stereo not drawn) (I: TVP[Sar][NMeV] / II: TVP[Sar][NMeV]; ester I:1-I:C, II:1-II:C; linker I:N-II:N via Actinocin(9to1); configuration not given here), the T/C runs as follows: (dose: 0.06 mg/kg/injection, schedule: Q01DX009 (ip), vehicle: saline) 165 % of control; (dose: 0.12 mg/kg/injection, schedule: Q01DX009 (ip), vehicle: saline) 177 % of control and 180 % of control.

As to `COC(=O)C1(C)CCC(c2ccc(OC)cc2)CC1=O` (stereo not drawn), the T/C was 90 % of control under setting [3] and 87 % of control under setting [5].

Turning to `Cc1nc(C(N)=O)c(=O)[nH]c1C`, the T/C is 97 % of control (dose: 12.5 mg/kg/injection, schedule: Q04DX003 (ip), vehicle: saline); 102 % of control (dose: 25.0 mg/kg/injection, schedule: Q04DX003 (ip), vehicle: saline); 97 % of control (dose: 50.0 mg/kg/injection, schedule: Q04DX003 (ip), vehicle: saline with Tween-80); 100 % of control (dose: 50.0 mg/kg/injection, schedule: Q04DX003 (ip), vehicle: saline); 102 % of control (dose: 100.0 mg/kg/injection, schedule: Q04DX003 (ip), vehicle: saline with Tween-80); 100 % of control (dose: 200.0 mg/kg/injection, schedule: Q04DX003 (ip), vehicle: saline with Tween-80). Besides, the T/C (dose: 400.0 mg/kg/injection, schedule: Q04DX003 (ip), vehicle: saline with Tween-80) was 104 % of control.

In the case of `CC(C)(C)C1CCNC(=O)CC1` (stereo not drawn), the T/C runs as follows: (dose: 5.0 mg/kg/injection, schedule: Q01DX009 (ip), vehicle: Klucel (hydroxypropylcellulose) (HPC)) 88 % of control; (dose: 10.0 mg/kg/injection, schedule: Q01DX009 (ip), vehicle: Klucel (hydroxypropylcellulose) (HPC)) 94 % of control; (dose: 20.0 mg/kg/injection, schedule: Q01DX009 (ip), vehicle: Klucel (hydroxypropylcellulose) (HPC)) 97 % of control.

As for `CCOc1ccc(NC(=O)COc2ccc(Cl)cc2)cc1`, the T/C under setting [4] is 103 % of control, the T/C under setting [5] was 109 % of control and the T/C under setting [7] was 93 % of control.

On to `N#CC1C(=O)c2ccccc2C1=O`, for which the T/C runs as follows: under setting [12], 114 % of control; under setting [13], 106 % of control.

As to `Cc1ccc(C(=O)CCl)c(C)c1`, the T/C by setting is: (dose: 12.5 mg/kg/injection, schedule: Q01DX009 (ip), vehicle: saline with Tween-80) 90 % of control; under setting [12], 92 % of control; under setting [13], 95 % of control.

For the compound `O=C1C2CC=CCC2C(=O)N1SC(Cl)(Cl)Cl` (stereo not drawn), the T/C runs as follows: (dose: 0.2 mg/kg/injection, schedule: Q01DX009 (ip), vehicle: saline with Tween-80) 98 % of control; (dose: 0.4 mg/kg/injection, schedule: Q01DX009 (ip), vehicle: saline with Tween-80) 100 % of control; (dose: 0.8 mg/kg/injection, schedule: Q01DX009 (ip), vehicle: saline with Tween-80) 97 % of control; (dose: 3.13 mg/kg/injection, schedule: Q01DX009 (ip), vehicle: saline with Tween-80) 88 % of control.

With `CCC1OCCN1C(C)C` (stereo not drawn), the T/C under setting [10] was 102 % of control and the T/C under setting [6] was 106 % of control.

Turning to `CN=C1N[N+]2=CCCCC2S1` (stereo not drawn), the T/C is, setting by setting: (dose: 40.0 mg/kg/injection, schedule: Q01DX011 (ip), vehicle: saline) 104 % of control; (dose: 60.0 mg/kg/injection, schedule: Q01DX011 (ip), vehicle: saline) 112 % of control; (dose: 80.0 mg/kg/injection, schedule: Q01DX011 (ip), vehicle: saline) 111 % of control.

For the compound `ClC[P+](c1ccccc1)(c1ccccc1)c1ccccc1`, the T/C runs as follows: (dose: 2.5 mg/kg/injection, schedule: Q01DX009 (ip), vehicle: saline) 120 % of control; (dose: 5.0 mg/kg/injection, schedule: Q01DX009 (ip), vehicle: saline) 106 % of control; under setting [11], 101 % of control.
